Laboratory results taken from PubChem BioAssay AID256 (DTP/NCI, 2004).
Toxic doses and inconclusive results are not listed. Rule for the calls: active = survival T/C of 150% or more; inactive = T/C below 125% in these data.

Test system: CD2F1 mice, L1210 leukemia ip, survival T/C
Test: NCI In Vivo Anticancer Drug Screen. Data for tumor model L1210 Leukemia (intraperitoneal) in CD2F1 (CDF1) mice
Conditions: higher = longer survival
Summary of the method: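 Transplantable tumor in mice; compound-treated vs vehicle-treated groups. Read-out = treated/control ratio of the measured endpoint.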

[1] = endpoint: mean survival time, dose: 50.0 mg/kg/injection, schedule: Q01DX009 (ip), vehicle: saline
[2] = endpoint: mean survival time, dose: 100.0 mg/kg/injection, schedule: Q01DX009 (ip), vehicle: saline
[3] = endpoint: mean survival time, dose: 100.0 mg/kg/injection, schedule: Q04DX002 (ip), vehicle: saline with Tween-80
[4] = endpoint: mean survival time, dose: 200.0 mg/kg/injection, schedule: Q04DX002 (ip), vehicle: saline with Tween-80
[5] = endpoint: mean survival time, dose: 400.0 mg/kg/injection, schedule: Q04DX002 (ip), vehicle: saline with Tween-80
[6] = endpoint: mean survival time, dose: 200.0 mg/kg/injection, schedule: Q01DX009 (ip), vehicle: saline
[7] = endpoint: mean survival time, dose: 100.0 mg/kg/injection, schedule: Q01DX001 (ip), vehicle: saline with Tween-80
[8] = endpoint: mean survival time, dose: 100.0 mg/kg/injection, schedule: Q04DX003 (ip), vehicle: saline with Tween-80
[9] = endpoint: mean survival time, dose: 200.0 mg/kg/injection, schedule: Q04DX003 (ip), vehicle: saline with Tween-80
[10] = endpoint: mean survival time, dose: 400.0 mg/kg/injection, schedule: Q04DX003 (ip), vehicle: saline with Tween-80
[11] = endpoint: mean survival time, dose: 400.0 mg/kg/injection, schedule: Q01DX009 (ip), vehicle: saline

Measured: T/C

CC12CCC(=O)C=C1CCC1C2CCC2(C)C1CCC2(O)C(=O)Cn1c(=O)cc[nH]c1=O (stereo not given)
inactive: endpoint: mean survival time, dose: 12.5 mg/kg/injection, schedule: Q04DX003 (ip), vehicle: Klucel (hydroxypropylcellulose) (HPC) 100 % of control | endpoint: mean survival time, dose: 25.0 mg/kg/injection, schedule: Q04DX003 (ip), vehicle: Klucel (hydroxypropylcellulose) (HPC) 93 % of control | endpoint: mean survival time, dose: 50.0 mg/kg/injection, schedule: Q04DX003 (ip), vehicle: Klucel (hydroxypropylcellulose) (HPC) 94 % of control | endpoint: mean survival time, dose: 100.0 mg/kg/injection, schedule: Q04DX003 (ip), vehicle: Klucel (hydroxypropylcellulose) (HPC) 93 % of control | endpoint: mean survival time, dose: 200.0 mg/kg/injection, schedule: Q04DX003 (ip), vehicle: Klucel (hydroxypropylcellulose) (HPC) 93 % of control

O=C(O)C1CSCN1 (stereo not given)
inactive: endpoint: mean survival time, dose: 3.12 mg/kg/injection, schedule: Q01DX009 (ip), vehicle: saline 97 % of control | endpoint: mean survival time, dose: 3.12 mg/kg/injection, schedule: Q01DX009 (ip), vehicle: water 101 % of control | endpoint: mean survival time, dose: 6.25 mg/kg/injection, schedule: Q01DX009 (ip), vehicle: saline 98 % of control | endpoint: mean survival time, dose: 6.25 mg/kg/injection, schedule: Q01DX009 (ip), vehicle: water 93 % of control | endpoint: mean survival time, dose: 12.5 mg/kg/injection, schedule: Q01DX009 (ip), vehicle: saline 96 % of control | endpoint: mean survival time, dose: 12.5 mg/kg/injection, schedule: Q01DX009 (ip), vehicle: water 102 % of control | endpoint: mean survival time, dose: 25.0 mg/kg/injection, schedule: Q01DX009 (ip), vehicle: saline 93 % of control | endpoint: mean survival time, dose: 25.0 mg/kg/injection, schedule: Q01DX009 (ip), vehicle: water 98 % of control | [1] 100 % of control | endpoint: mean survival time, dose: 50.0 mg/kg/injection, schedule: Q01DX009 (ip), vehicle: water 95 % of control | [2] 95 % of control | endpoint: mean survival time, dose: 100.0 mg/kg/injection, schedule: Q01DX009 (ip), vehicle: water 95 % of control | endpoint: median survival time, dose: 3.12 mg/kg/injection, schedule: Q01DX009 (ip), vehicle: Klucel (hydroxypropylcellulose) (HPC) 93 % of control | endpoint: median survival time, dose: 6.25 mg/kg/injection, schedule: Q01DX009 (ip), vehicle: Klucel (hydroxypropylcellulose) (HPC) 95 % of control | endpoint: median survival time, dose: 12.5 mg/kg/injection, schedule: Q01DX009 (ip), vehicle: Klucel (hydroxypropylcellulose) (HPC) 102 % of control | endpoint: median survival time, dose: 15.0 mg/kg/injection, schedule: Q01DX005 (ip), vehicle: saline 108 % of control | endpoint: median survival time, dose: 25.0 mg/kg/injection, schedule: Q01DX009 (ip), vehicle: Klucel (hydroxypropylcellulose) (HPC) 91 % of control | endpoint: median survival time, dose: 50.0 mg/kg/injection, schedule: Q01DX005 (ip), vehicle: saline 101 % of control | endpoint: median survival time, dose: 50.0 mg/kg/injection, schedule: Q01DX009 (ip), vehicle: Klucel (hydroxypropylcellulose) (HPC) 95 % of control | endpoint: median survival time, dose: 60.0 mg/kg/injection, schedule: Q01DX005 (ip), vehicle: saline 103 % of control | endpoint: median survival time, dose: 100.0 mg/kg/injection, schedule: Q01DX009 (ip), vehicle: Klucel (hydroxypropylcellulose) (HPC) 91 % of control | endpoint: median survival time, dose: 120.0 mg/kg/injection, schedule: Q01DX005 (ip), vehicle: saline 100 % of control

CCN(CCNC(=O)Nc1ccccc1OC)c1ccccc1
inactive: [3] 98 % of control | [4] 94 % of control | [5] 94 % of control

O=C(C=C(C(F)(F)F)C(F)(F)F)c1cccc(C(F)(F)F)c1
inactive: endpoint: mean survival time, dose: 25.0 mg/kg/injection, schedule: Q04DX003 (ip), vehicle: saline with Tween-80 106 % of control | endpoint: mean survival time, dose: 50.0 mg/kg/injection, schedule: Q04DX003 (ip), vehicle: saline with Tween-80 106 % of control

CCc1nc(N)nc(N)n1
inactive: [1] 104 % of control | [2] 100 % of control | [6] 104 % of control

CC(=O)Nc1c(C)cccc1[N+](=O)[O-]
inactive: endpoint: mean survival time, dose: 25.0 mg/kg/injection, schedule: Q01DX001 (ip), vehicle: saline with Tween-80 101 % of control | endpoint: mean survival time, dose: 50.0 mg/kg/injection, schedule: Q01DX001 (ip), vehicle: saline with Tween-80 97 % of control | [7] 97 % of control

CC(C)N1C(=O)[N+](C)(C)N=C1[O-]
inactive: [7] 103 % of control | endpoint: mean survival time, dose: 100.0 mg/kg/injection, schedule: Q01DX009 (ip), vehicle: saline with Tween-80 89 % of control | endpoint: mean survival time, dose: 200.0 mg/kg/injection, schedule: Q01DX001 (ip), vehicle: saline with Tween-80 101 % of control | endpoint: mean survival time, dose: 200.0 mg/kg/injection, schedule: Q01DX009 (ip), vehicle: saline with Tween-80 97 % of control | endpoint: mean survival time, dose: 400.0 mg/kg/injection, schedule: Q01DX001 (ip), vehicle: saline with Tween-80 104 % of control | endpoint: mean survival time, dose: 400.0 mg/kg/injection, schedule: Q01DX009 (ip), vehicle: saline with Tween-80 101 % of control

CC1(C)COC(Cc2ccccc2Br)=N1
inactive: endpoint: mean survival time, dose: 100.0 mg/kg/injection, schedule: Q04DX003 (ip), vehicle: saline 101 % of control | endpoint: mean survival time, dose: 200.0 mg/kg/injection, schedule: Q04DX003 (ip), vehicle: saline 93 % of control | endpoint: mean survival time, dose: 400.0 mg/kg/injection, schedule: Q04DX003 (ip), vehicle: saline 93 % of control

COC1=N/C=C/C=C\C/C=C/C1
inactive: endpoint: median survival time, dose: 50.0 mg/kg/injection, schedule: Q04DX002 (ip), vehicle: saline with Tween-80 111 % of control | endpoint: median survival time, dose: 100.0 mg/kg/injection, schedule: Q04DX002 (ip), vehicle: saline with Tween-80 88 % of control | endpoint: median survival time, dose: 200.0 mg/kg/injection, schedule: Q04DX002 (ip), vehicle: saline with Tween-80 100 % of control | endpoint: median survival time, dose: 400.0 mg/kg/injection, schedule: Q04DX002 (ip), vehicle: saline with Tween-80 88 % of control

CC(=O)N/C(=C/c1ccccc1)C(=O)NC(C)(C)C
inactive: [8] 96 % of control | [9] 99 % of control | [10] 89 % of control

Nc1ncnc2nc(-c3ccc(OCc4ccccc4)cc3)[nH]c12
inactive: endpoint: mean survival time, dose: 100.0 mg/kg/injection, schedule: Q01DX001 (ip), vehicle: Klucel (hydroxypropylcellulose) (HPC) 97 % of control | endpoint: mean survival time, dose: 200.0 mg/kg/injection, schedule: Q01DX001 (ip), vehicle: Klucel (hydroxypropylcellulose) (HPC) 89 % of control | endpoint: mean survival time, dose: 400.0 mg/kg/injection, schedule: Q01DX001 (ip), vehicle: Klucel (hydroxypropylcellulose) (HPC) 95 % of control

CN(CCC#N)C(=O)Nc1ccccc1
inactive: endpoint: mean survival time, dose: 100.0 mg/kg/injection, schedule: Q04DX003 (ip), vehicle: saline + alcohol 93 % of control | endpoint: mean survival time, dose: 200.0 mg/kg/injection, schedule: Q04DX003 (ip), vehicle: saline + alcohol 98 % of control | endpoint: mean survival time, dose: 400.0 mg/kg/injection, schedule: Q04DX003 (ip), vehicle: saline + alcohol 95 % of control

CN(CCC#N)C1=CCCC1
inactive: [2] 102 % of control | [6] 112 % of control | [11] 105 % of control

C#CCN(C)CCO
inactive: endpoint: mean survival time, dose: 100.0 mg/kg/injection, schedule: Q01DX009 (ip), vehicle: acetone 103 % of control | endpoint: mean survival time, dose: 200.0 mg/kg/injection, schedule: Q01DX009 (ip), vehicle: acetone 97 % of control | endpoint: mean survival time, dose: 400.0 mg/kg/injection, schedule: Q01DX009 (ip), vehicle: acetone 100 % of control

COc1ccc(NC(=O)Oc2ccc3ccccc3c2)cc1
inactive: [3] 87 % of control | [4] 93 % of control | [5] 93 % of control

CC(CO)(CO)[N+](=O)[O-]
inactive: [2] 98 % of control | [6] 102 % of control | [11] 104 % of control

CCn1c(=O)c2c(nc(Cl)n2C2OC(COC(C)=O)C(OC(C)=O)C(OC(C)=O)C2NC(C)=O)n(CC)c1=O (stereo not given)
inactive: endpoint: mean survival time, dose: 12.5 mg/kg/injection, schedule: Q01DX005 (ip), vehicle: distilled water + Tween-80 98 % of control | endpoint: mean survival time, dose: 25.0 mg/kg/injection, schedule: Q01DX005 (ip), vehicle: distilled water + Tween-80 97 % of control | endpoint: mean survival time, dose: 50.0 mg/kg/injection, schedule: Q01DX005 (ip), vehicle: distilled water + Tween-80 97 % of control | endpoint: mean survival time, dose: 100.0 mg/kg/injection, schedule: Q01DX005 (ip), vehicle: distilled water + Tween-80 95 % of control | endpoint: mean survival time, dose: 200.0 mg/kg/injection, schedule: Q01DX005 (ip), vehicle: distilled water + Tween-80 97 % of control

CCCCOB=O
inactive: [8] 96 % of control | [9] 98 % of control | [10] 95 % of control
